# Measured values from patent US4330529A, “Antibacterial composition” (Fujisawa Pharmaceutical Co., Ltd., priority 1979, dated 1982).
# Read-outs that look alike come from different tables or passages of the source.
# Assays:
# [1] = test system: Escherichia coli No.14; test: MIC and FIC, Nutrient agar, multiple inoculator (Test 4); assay type: cell-based; conditions: E. coli No.14, 10^8 cells/ml, 20 h
# Description: (§1) After the incubation was carried out at 37° C. for 20 hours, MIC values were determined.
# [2] = test system: Pseudomonas aeruginosa No.7; test: as above; assay type: cell-based; conditions: P. aeruginosa No.7, 10^8 cells/ml, 20 h
# Description: as §1
# (§2) FIC values and FIC Index were calculated in substantially the same manner as described in Test 1.
# [3] = test system: Pseudomonas aeruginosa No.14; test: as above; assay type: cell-based; conditions: P. aeruginosa No.14, 10^8 cells/ml, 20 h
# Description: as §1, §2
# [4] = test system: Pseudomonas aeruginosa No.15; test: as above; assay type: cell-based; conditions: P. aeruginosa No.15, 10^8 cells/ml, 20 h
# Description: as §1, §2
# [5] = test system: Pseudomonas aeruginosa No.9; test: as above; assay type: cell-based; conditions: P. aeruginosa No.9, 10^8 cells/ml, 20 h
# Description: as §1, §2
# [6] = test system: Pseudomonas aeruginosa No.5; test: MIC and FIC, Nutrient agar, multiple inoculator (Tests 4, 5); assay type: cell-based; conditions: P. aeruginosa No.5, 10^8 cells/ml, 20 h
# Description: as §1
# [7] = test system: Escherichia coli 82; test: MIC and FIC, Nutrient agar (Test 7); assay type: cell-based; conditions: E. coli 82, 18 h
# Description: as §2
# [8] = test system: Proteus vulgaris 7; test: MIC and FIC, Nutrient agar (Tests 7, 9); assay type: cell-based; conditions: Proteus vulgaris, 7, 18 h, P. vulgaris 7
# [9] = test system: Enterobacter aerogenes 25; test: microbe, parasite or virus in culture; conditions: Klebsiella aerogenes, 25, 18 h
# [10] = test system: Pseudomonas aeruginosa 77; test: MIC and FIC, Nutrient agar (Test 7); assay type: cell-based; conditions: P. aeruginosa 77, 18 h
# Description: as §2
# [11] = test system: Proteus mirabilis 48; test: MIC and FIC, Nutrient agar (Test 7); assay type: cell-based; conditions: P. mirabilis 48, 18 h
# Description: as §2
# [12] = test system: Staphylococcus aureus 2; test: MIC and FIC, Nutrient agar (Test 7); assay type: cell-based; conditions: S. aureus 2, 18 h
# Description: as §2
# [13] = test system: Citrobacter freundii 35; test: MIC and FIC, Nutrient agar (Tests 6, 7, 9); assay type: cell-based; conditions: C. freundii 35, 18 h
# [14] = test system: Staphylococcus aureus 1; test: MIC and FIC, Nutrient agar (Test 7); assay type: cell-based; conditions: S. aureus 1, 18 h
# Description: as §2
# [15] = test system: Proteus mirabilis 5; test: MIC and FIC, Nutrient agar (Test 7); assay type: cell-based; conditions: P. mirabilis 5, 18 h
# Description: as §2
# [16] = test system: Serratia marcescens 27; test: MIC and FIC, Nutrient agar (Test 7); assay type: cell-based; conditions: S. marcescens 27, 18 h
# Description: as §2
# [17] = test system: Enterobacter aerogenes 7; test: MIC and FIC, Nutrient agar (Tests 6, 7, 9); assay type: cell-based; conditions: E. aerogenes 7, 18 h
# Description: as §2
# [18] = test system: Pseudomonas aeruginosa 42; test: MIC and FIC, Nutrient agar (Test 7); assay type: cell-based
# Description: as §2
# [19] = test system: Enterobacter cloacae 18; test: MIC and FIC, Nutrient agar (Tests 7, 9); assay type: cell-based; conditions: Enterobacter cloacae, 18, 18 h, E. cloacae 18, read-out: MIC
# Description: as §2
# [20] = test system: Escherichia coli 116; test: MIC and FIC, Nutrient agar (Test 7); assay type: cell-based; conditions: E. coli 116, 18 h
# Description: as §2
# [21] = test system: Serratia marcescens 4; test: MIC and FIC, Nutrient agar (Test 9); assay type: cell-based; conditions: S. marcescens 4, 18 h
# Description: as §2
# [22] = test system: Citrobacter freundii 63; test: MIC and FIC, Nutrient agar (Test 9); assay type: cell-based; conditions: C. freundii 63, 18 h
# Description: as §2
# [23] = test system: Proteus vulgaris 22; test: MIC and FIC, Nutrient agar (Test 9); assay type: cell-based; conditions: P. vulgaris 22, 18 h
# Description: as §2
# [24] = test system: Proteus vulgaris 5; test: MIC and FIC, Nutrient agar (Test 6); assay type: cell-based; conditions: P. vulgaris 5; 18 h
# Description: as §2
# [25] = test system: Pseudomonas aeruginosa No.18; test: MIC and FIC, Nutrient agar, multiple inoculator (Test 5); assay type: cell-based; conditions: P. aeruginosa No.18; 10^8 cells/ml, 20 h
# Description: as §1, §2
# [26] = test system: Klebsiella pneumoniae 8; test: Isobologram, growth in Nutrient broth in various combination ratios (Test 8); assay type: cell-based; parameters: key: +: the test microorganism grew; -: the test microorganism did not grow; conditions: phosphonic acid salt 0
# Description: After the incubation was carried out at 37° C. for 18 hours, the growth of the test organism was observed.
# [27] = test system: Escherichia coli 99; test: MIC and FIC, Nutrient agar (Test 6); conditions: E. coli 99; 18 h
# Description: as §2
# [28] = test system: Pseudomonas aeruginosa No.11; test: MIC and FIC, Nutrient agar, multiple inoculator (Test 5); assay type: cell-based; conditions: P. aeruginosa No.11; 10^8 cells/ml, 20 h
# Description: as §1, §2
# [29] = test system: Serratia marcescens 9; test: MIC and FIC, Nutrient agar (Test 6); assay type: cell-based; conditions: S. marcescens 9; 18 h
# Description: as §2
# [30] = test system: Staphylococcus aureus 3; test: MIC and FIC, Nutrient agar (Tests 6, 7); assay type: cell-based; conditions: S. aureus 3; 18 h
# Description: as §2
# [31] = test system: Pseudomonas aeruginosa No.13; test: MIC and FIC, Nutrient agar, multiple inoculator (Test 5); assay type: cell-based; conditions: P. aeruginosa No.13; 10^8 cells/ml, 20 h
# Description: as §1, §2
# [32] = test system: Pseudomonas aeruginosa No.12; test: as above; assay type: cell-based; conditions: P. aeruginosa No.12; 10^8 cells/ml, 20 h
# Description: as §1, §2
# [33] = Klebsiella aerogenes, read-out: MIC
molecule,measurement,setting,value
"CC1(C)S[C@@H]2[C@H](NC(=O)C(C(=O)O)c3ccccc3)C(=O)N2[C@H]1C(=O)O (some centres unmarked) [B (Table 6), carbenicillin]",MIC,[1],12.5 µg/mL
same,MIC,[2],> 800 µg/mL
same,MIC,[3],> 800 µg/mL
same,MIC,[4],800 µg/mL
same,MIC,[5],> 800 µg/mL
same,MIC,"[6]; Pseudomonas aeruginosa, read-out: MIC",50 µg/mL
"NC[C@@H]1CC[C@@H](N)[C@@H](O[C@H]2[C@H](O)[C@@H](O[C@H]3O[C@H](CO)[C@@H](O)[C@H](N)[C@H]3O)[C@H](N)C[C@@H]2N)O1 [B (Table 10), dibekacin]",MIC,[7],6.25 µg/mL
same,MIC,[8],50 µg/mL
same,MIC,[9],6.25 µg/mL
same,MIC,[10],3.13 µg/mL
same,MIC,[11],12.5 µg/mL
same,MIC,[12],1.56 µg/mL
same,MIC,"[13]; Citrobacter freundii, 35, 18 h",6.25 µg/mL
"NCC[C@H](O)C(=O)N[C@@H]1C[C@H](N)[C@@H](O[C@H]2O[C@H](CN)[C@@H](O)[C@H](O)[C@H]2O)[C@H](O)[C@H]1O[C@H]1O[C@H](CO)[C@@H](O)[C@H](N)[C@H]1O [B (Table 11), amikacin]",MIC,[14],0.78 µg/mL
same,MIC,[15],3.13 µg/mL
same,MIC,[16],12.5 µg/mL
same,MIC,[17]; [33],6.25 µg/mL
same,MIC,"[18]; Pseudomonas aeruginosa, P. aeruginosa 42, 18 h, read-out: MIC",6.25 µg/mL
"NC[C@H]1O[C@H](O[C@H]2[C@H](O)[C@@H](O[C@H]3O[C@H](CO)[C@@H](O)[C@H](N)[C@H]3O)[C@H](N)C[C@@H]2N)[C@H](N)[C@@H](O)[C@@H]1O [B (Table 12), bekanamycin]",MIC,[19],6.25 µg/mL
same,MIC,[17]; [33],6.25 µg/mL
same,MIC,[20],200 µg/mL
same,MIC,"[18]; Pseudomonas aeruginosa, 42, 18 h",100 µg/mL
"CC1=C(C(=O)O)N2C(=O)[C@@H](NC(=O)[C@H](N)c3ccccc3)[C@H]2SC1 [B (Table 14), Cephalexin]",MIC,[21],400 µg/mL
same,MIC,[19],100 µg/mL
same,MIC,[22],400 µg/mL
same,MIC,[23],25 µg/mL
same,MIC,[17]; [33],100 µg/mL
gentamicin [B (Table 7)],MIC,[24],6.25 µg/mL
same,MIC,[25],50 µg/mL
same,growth of the test organism,[26]; gentamicin sulfate 0.001 mcg/ml,+
same,growth of the test organism,[26]; gentamicin sulfate 0.003 mcg/ml,+
same,growth of the test organism,[26]; gentamicin sulfate 0.006 mcg/ml,+
same,growth of the test organism,[26]; gentamicin sulfate 0.01 mcg/ml,+
same,growth of the test organism,[26]; gentamicin sulfate 0.025 mcg/ml,+
same,growth of the test organism,[26]; gentamicin sulfate 0.05 mcg/ml,-
same,MIC,[27],12.5 µg/mL
same,MIC,[17],6.25 µg/mL
same,MIC,[6],50 µg/mL
same,MIC,[28],3.13 µg/mL
same,MIC,[29],50 µg/mL
same,MIC,[30],0.39 µg/mL
same,MIC,[31],100 µg/mL
same,MIC,[32],12.5 µg/mL
same,MIC,[13],3.13 µg/mL
